In patent US9765087B2, “Benzimidazole derivatives” (ENANTA PHARMACEUTICALS, INC., priority 2009, dated 2017):
Read-outs that look alike come from different tables or passages of the source.

Tested on: HCV 1b genotype replicon
Assay: HCV replicon assay (qRT-PCR or luciferase), genotype 1b
Type: cell-based
Conditions: Hepatitis C virus
Source text: HCV replicon cell lines (kindly provided by R. Bartenschlager) isolated from colonies as described by Lohman et. al. (Lohman et al. (1999) Science 285: 110-113, expressly incorporated by reference in its entirety) and used for all experiments. The HCV replicon has the nucleic acid sequence set forth in EMBL Accession No.: AJ242651, the coding sequence of which is from nucleotides 1801 to 8406.
The coding sequence of the published HCV replicon was synthesized and subsequently assembled in a modified plasmid pBR322 (Promega, Madison, Wis.) using standard molecular biology techniques. One replicon cell line (“SGR 11-7”) stably expresses HCV replicon RNA which consists of (i) the HCV 5′UTR fused to the first 12 amino acids of the capsid protein, (ii) the neomycin phosphotransferase gene (neo), (iii) the IRES from encephalomyocarditis virus (EMCV), and (iv) HCV […] to NSSB genes and the HCV 3′UTR. Another replicon cell line (“Huh-luc/neo-ET”) described by Vrolijk et. al. (Vrolijk et. al. (2003) Journal of Virological Methods 110:201-209, expressly incorporated by reference in its entirety) stably expresses HCV replicon RNA which consists of (i) the HCV 5′UTR fused to the first 12 amino acids of the capsid protein, (ii) the firefly luciferase reporter gene, (iii) the ubiquitin gene, (iv) the neomycin phosphotransferase gene (neo), (v) the IRES from encephalomyocarditis virus (EMCV), and (vi) HCV NS3 to NS5B genes that harbor cell culture adaptive mutations (E1202G, T1280I, K1846T) and the HCV 3′UTR.
These cell lines were maintained at 37° C., 5% CO2, 100% relative humidity in DMEM (Cat#11965-084, Invitrogen), with 10% fetal calf serum (“FCS”, Invitrogen), 1% non-essential amino acids (Invitrogen), 1% of Glutamax (Invitrogen), 1% of 100× penicillin/streptomycin (Cat#15140-122, Invitrogen) and Geneticin (Cat#10131-027, Invitrogen) at 0.75 mg/ml or 0.5 mg/ml for 11-7 and Huh-luc/neo-ET cells, respectively.
EC50 values of single agent compounds and combinations were determined by HCV RNA detection using quantitative RT-PCR, according to the manufacturer's instructions, with a TAQMAN® One-Step RT-PCR Master Mix Reagents Kit (Cat#AB 4309169, Applied Biosystems) on an ABI Model 7500 thermocycler. The TaqMan primers used for detecting and quantifying HCV RNA were obtained from Integrated DNA Technologies. HCV RNA was normalized to GAPDH RNA levels in drug-treated cells, which is detected and quantified using the Human GAPDH Endogenous Control Mix (Applied Biosystems, AB 4310884E). Total cellular RNA is purified from 96-well plates using the RNAqueous 96 kit (Ambion, Cat# AM1812). Chemical agent cytotoxicity is evaluated using an MTS assay according to the manufacturer's directions (Promega).
Since clinical drug resistance often develops in viral infections following single agent therapies, there is a need to assess the additive, antagonistic, or synergistic properties of combination therapies. We used the HCV replicon system to assess the potential use of the compound of the present invention or in combination therapies with Interferon alpha, cyclosporine analogs and inhibitors targeting other HCV proteins. The acute effects of a single or combinations of drugs are studied in the “Huh-luc/neo-ET” replicon with each chemical agent titrated in an X or Y direction in a 6 point two-fold dilution curve centered around the EC50 of each drug. Briefly, replicon cells are seeded at 7,000 cells per well in 90 ul DMEM (without phenol red, Invitrogen Cat.#31053-036) per well with 10% FCS, 1% non-essential amino acids, 1% of Glutamax and 1% of 100× penicillin/streptomycin and incubated overnight at 37° C., 5% CO2, 100% relative humidity. […]

[1] = Table 11, qRT-PCR or luciferase assay, read-out: Genotype-1b replicon EC50 Range
[2] = Table 12, numeric values, read-out: 1b EC50
[3] = Table 12, range class, read-out: 1b EC50 Range

SMILES	EC50 [1] [nM]	further results
COC(=O)N[C@@H](C(=O)N1CCC[C@H]1c1ncc(-c2ccc(-c3ccc4[nH]c([C@@H]5CCCN5C(=O)[C@H](NC(=O)OC)c5ccccc5)nc4c3)cc2)[nH]1)c1ccccc1 [Example 2]	< 1	–
COC(=O)N[C@H](C(=O)N1CCC[C@H]1c1nc(CCc2ccc(-c3ccc4[nH]c([C@@H]5CCCN5C(=O)[C@@H](NC(=O)OC)C(C)C)nc4c3)cc2)c[nH]1)C(C)C [Example 469]	< 1	–
CC[C@H](C)[C@H](NC(=O)OC)C(=O)N1CCC[C@H]1c1nc2cc(-c3ccc4cc(-c5c[nH]c([C@@H]6CCCN6C(=O)[C@@H](NC(=O)OC)[C@@H](C)OC)n5)ccc4c3)ccc2[nH]1 [Example 466]	< 1	–
COC(=O)N[C@H](C(=O)N1C[C@@](C)(F)C[C@H]1c1ncc(-c2ccc(C#Cc3ccc4nc([C@@H]5C[C@@]6(CCCO6)CN5C(=O)[C@@H](NC(=O)OC)C(C)C)[nH]c4c3)cc2)[nH]1)C(C)C [Example 636]	–	EC50 [2]: 0.02 nM
COC(=O)N[C@H](C(=O)N1CCC[C@H]1c1ncc(-c2ccc(C#Cc3ccc4nc([C@@H]5C[C@@]6(CC(C)=NO6)CN5C(=O)[C@@H](NC(=O)OC)C(C)C)[nH]c4c3)cc2)[nH]1)C(C)C [Example 623]	–	EC50 [3]: < 1 nM
COC(=O)N[C@H](C(=O)N1CCC[C@H]1c1ncc(-c2ccc(C#Cc3ccc4nc([C@@H]5C[C@H]6C[C@H]6N5C(=O)[C@@H](NC(=O)OC)C(C)C)[nH]c4c3)cc2)[nH]1)C(C)C [Example 541]	< 1	–
COC(=O)N[C@H](C(=O)N1CC2(CC2)C[C@H]1c1nc(-c2ccc(C#Cc3ccc4[nH]c([C@@H]5CC6(CC6)CN5C(=O)[C@@H](NC(=O)OC)C(C)C)nc4c3)cc2)c[nH]1)C(C)C [Example 525]	< 1	–
COC(=O)N[C@H](C(=O)N1CCC[C@H]1c1nc2cc(-c3ccc4cc(-c5c[nH]c([C@@H]6CCCN6C(=O)[C@@H](NC(=O)OC)[C@@H](C)OC)n5)ccc4c3)ccc2[nH]1)C(C)C [Example 464]	< 1	–
COC(=O)N[C@H](C(=O)N1CC2(CC2)C[C@H]1c1ncc(-c2ccc(C#Cc3ccc4nc([C@@H]5CC6(CC6)CN5C(=O)OC(C)(C)C)[nH]c4c3)cc2)[nH]1)C(C)C [Example 649]	–	EC50 [2]: 0.304 nM
COC(=O)N[C@H](C(=O)N1CCC[C@H]1c1nc2cc(C#Cc3ccc(-c4c[nH]c([C@@H]5CCCN5C(=O)[C@@H](c5ccccc5)C(C)C)n4)cc3)ccc2[nH]1)C(C)C [Example 512]	< 1	–
COC(=O)N[C@H](C(=O)N1CCC[C@H]1c1nc(-c2ccc(C#Cc3ccc4[nH]c([C@@H]5C[C@@H](O)CN5C(=O)[C@@H](NC(=O)OC)C(C)C)nc4c3)cc2)c[nH]1)C(C)C [Example 517]	< 1	–
COC(=O)N[C@H](C(=O)N1CCC[C@H]1c1nc2cc(C#Cc3ccc(-c4c[nH]c([C@@H]5CCCN5C(=O)[C@H](NC(=O)OC)C(C)C)n4)cc3)ccc2[nH]1)C(C)C [Example 513]	< 1	–
COC(=O)N[C@H](C(=O)N1CCC[C@H]1c1nc(-c2ccc(C#Cc3ccc4[nH]c([C@@H]5CCCN5C(=O)[C@@H](c5ccccc5)C(C)C)nc4c3)cc2)c[nH]1)C(C)C [Example 507]	< 1	–
COC(=O)N[C@H](C(=O)N1CCC[C@H]1c1nc(-c2ccc(C#Cc3ccc4[nH]c([C@@H]5CCCN5C(=O)[C@@H](NC(=O)OC)[C@@H](C)OC)nc4c3)cc2)c[nH]1)[C@@H](C)OC [Example 473]	< 1	–
COC(=O)N[C@H](C(=O)N1CCC[C@H]1c1ncc(-c2ccc(C#Cc3ccc4nc([C@@H]5CCCN5C(=O)[C@@H](NC(=O)OC)C(C)(C)C)[nH]c4c3)cc2)[nH]1)C(C)C [Example 529]	< 1	–
COC(=O)N[C@H](C(=O)N1CCC[C@H]1c1nc(-c2ccc(C#Cc3ccc4[nH]c([C@@H]5CC(=O)CN5C(=O)[C@@H](NC(=O)OC)C(C)C)nc4c3)cc2)c[nH]1)C(C)C [Example 486]	< 1	–

SMILES	EC50 [1] [nM]	further results
COC(=O)N[C@H](C(=O)N1CCC[C@H]1c1nc(-c2ccc(OCc3ccc4[nH]c([C@@H]5CCCN5C(=O)[C@@H](NC(=O)OC)C(C)C)nc4c3)cc2)c[nH]1)C(C)C [Example 451]	< 1	–
COC(=O)N[C@H](C(=O)N1CCC[C@H]1c1ncc(-c2ccc(C#Cc3ccc4nc([C@@H]5CCCN5C(=O)[C@@H](NC(=O)OC)[C@@H](C)O)[nH]c4c3)cc2)[nH]1)[C@@H](C)O [Example 527]	< 1	–
COC(=O)N[C@H](C(=O)N1C[C@H](O)C[C@H]1c1ncc(-c2ccc(C#Cc3ccc4nc([C@@H]5CCCN5C(=O)[C@@H](NC(=O)OC)C(C)C)[nH]c4c3)cc2)[nH]1)C(C)C [Example 535]	< 1	–
COC(=O)N[C@H](C(=O)N1CCC[C@H]1c1ncc(-c2ccc(C#Cc3ccc4nc([C@]5(C)CCCN5C(=O)[C@@H](NC(=O)OC)C(C)C)[nH]c4c3)cc2)[nH]1)C(C)C [Example 539]	< 1	–
CCC(NC(=O)OC)(C(=O)N1CCC[C@H]1c1nc2ccc(C#Cc3ccc(-c4cnc([C@@H]5CCCN5C(=O)[C@@H](NC(=O)OC)C(C)C)[nH]4)cc3)cc2[nH]1)c1ccccc1 (some centres unmarked) [Example 532]	< 1	–
COC(=O)N[C@@H](C(=O)N1CCC[C@H]1c1nc2ccc(C#Cc3ccc(-c4cnc([C@@H]5CCCN5C(=O)[C@H](NC(=O)OC)c5ccccc5)o4)cc3)cc2[nH]1)c1ccccc1 [Example 533]	< 1	–
COC(=O)N[C@H](C(=O)N1CCC[C@H]1c1ncc(-c2ccc(C#Cc3ccc4nc([C@@H]5C[C@]6(CCCOC6)CN5C(=O)[C@@H](NC(=O)OC)C(C)C)[nH]c4c3)cc2)[nH]1)C(C)C [Example 570]	–	EC50 [2]: 0.008 nM
COC(=O)N[C@H](C(=O)N1CCC[C@H]1c1nc(-c2ccc(C#Cc3ccc4[nH]c([C@@H]5CCCN5C(=O)[C@@H](NC(C)=O)C(C)C)nc4c3)cc2)c[nH]1)C(C)C [Example 506]	< 1	–
COC(=O)N[C@H](C(=O)N1[C@@H]2C[C@@H]2C[C@H]1c1ncc(-c2ccc(C#Cc3ccc4nc([C@@H]5CC6(CC6)CN5C(=O)[C@H](NC(=O)OC)c5ccccc5)[nH]c4c3)cc2)[nH]1)C(C)C [Example 648]	–	EC50 [3]: < 1 nM
COC(=O)N[C@@H](C(=O)N1CCC[C@H]1c1cc(-c2ccc(CCc3ccc4[nH]c([C@@H]5CCCN5C(=O)[C@H](NC(=O)OC)c5ccccc5)nc4c3)cc2)n[nH]1)c1ccccc1 [Example 446]	< 1	–
COC(=O)N[C@H](C(=O)N1CCC[C@H]1c1nc(-c2ccc3cc(C#Cc4ccc5[nH]c([C@@H]6CCCN6C(=O)[C@@H](NC(=O)OC)C(C)C)nc5c4)ccc3c2)c[nH]1)C(C)C [Example 475]	< 1	–
COC(=O)N[C@H](C(=O)N1CCC[C@H]1c1nc(-c2ccc(C#Cc3ccc4[nH]c([C@@H]5CCCN5C(=O)[C@@H](NC(=O)OC)C(C)C)nc4c3)cc2)c[nH]1)c1ccccc1 [Example 514]	< 1	–
COC(=O)N[C@@H](C(=O)N1CCC[C@H]1c1nc(-c2ccc(C#Cc3ccc4[nH]c([C@@H]5CCCN5C(=O)[C@H](NC(=O)OC)c5ccccc5)nc4c3)cc2)n[nH]1)c1ccccc1 [Example 442]	< 1	–
COC(=O)N[C@H](C(=O)N1CCC[C@H]1c1nc(-c2ccc(CCc3ccc4[nH]c([C@@H]5CCCN5C(=O)[C@@H](NC(=O)OC)C(C)C)nc4c3)cc2)c[nH]1)C(C)C [Example 494]	< 1	–
COC(=O)N[C@H](C(=O)N1CCC[C@H]1c1nc(-c2ccc3cc(-c4ccc5[nH]c([C@@H]6CCCN6C(=O)[C@H](NC(=O)OC)c6ccccc6)nc5c4)ccc3c2)c[nH]1)[C@@H](C)OC [Example 463]	< 1	–
COC(=O)N[C@H](C(=O)N1CCC[C@H]1c1ncc(-c2ccc(-c3ccc(-c4ccc5nc([C@@H]6CCCN6C(=O)[C@@H](NC(=O)OC)C(C)C)[nH]c5c4)cc3)cc2)[nH]1)C(C)C [Example 499]	< 1	–
